Measured values reported in US6326492A, “Heterocyclic protease inhibitors” (3-Dimensional Pharmaceuticals, Inc., priority 2000, dated 2001).
Where a name gives a salt, the structure may show the parent alone.

Biological target: T1, Human α-thrombin (Homo sapiens, UniProt P00734)
T1 construct: Human α-thrombin, was obtained from Enzyme Research Laboratories; purchased Enzyme Research Laboratories (South Bend, Ind.)
Assay: In vitro inhibition of purified thrombin (Ki determination, p-nitroanilide substrate hydrolysis)
Type: biochemical
Conditions: purified human α-thrombin 0.5 nM, substrate N-succinyl-Ala-Ala-Pro-Arg-p-nitroanilide, 50 mM HEPES, 200 mM NaCl, pH 7.5, 37° C.; read-out: thrombin inhibitory activity
From the text: Reagents: All buffer salts were obtained from Sigma Chemical Company (St. Louis, Mo.), and were of the highest purity available. The enzyme substrates, N-benzoyl-Phe-Val-Arg-p-nitroanilide (Sigma B7632), N-benzoyl-Ile-Glu-Gly-Arg-p-nitroanilide hydrochloride (Sigma B2291), N-p-Tosyl-Gly-Pro-Lys-p-nitroanilide (Sigma T6140), N-succinyl-Ala-Ala-Pro-Phe-p-nitroanilide (Sigma S7388) and N-CBZ-Val-Gly-Arg-p-nitroanilide (Sigma C7271) were obtained from Sigma. N-succinyl-Ala-Ala-Pro-Arg-p-nitroanilide (BACHEM L-1720) and N-succinyl-Ala-Ala-Pro-Val-p-nitroanilide (BACHEM L-1770) were obtained from BACHEM (King of Prussia, Pa.). […]
Ki Determinations: All assays are based on the ability of the test compound to inhibit the enzyme catalyzed hydrolysis of a peptide p-nitroanilide substrate. […] In general, substrate concentrations are lower than the experimentally determined value for Km. […]
In a typical Ki determination, into each well of a 96 well plate is pipetted […] of substrate solution, […] of test compound solution, and the plate allowed to thermally equilibrate at 37° C. in a Molecular Devices plate reader for>15 minutes. Reactions were initiated by the addition of a […] aliquot of enzyme and the absorbance increase at 405 nm is recorded for 15 minutes. […] The data are fit to a linear regression, and the value of the slope of the line calculated. […]

Ki [nM]	SMILES
26	Cc1cccc(S(=O)(=O)Nc2ccc(C)n(CC(=O)NCC3CNC(=N)NO3)c2=O)c1 (centres unmarked) [Example 1, N-[(3-Imino(1,2,4-oxadiazaperhydroin-6-yl))methyl]-2-(6methyl-3-{[(3methylphenyl)sulfonyl]amino}-2-oxohydropyridyl)acetamide trifluoroacetate]
0.38	Cc1cccc(S(=O)(=O)Nc2ccc(C)n(CC(=O)NC3CCN(C(=N)N)OC3)c2=O)c1 (centres unmarked) [Example 2, 5-[2-(6-Methyl-3-{[(3-methylphenyl)sulfonyl]amino}-2-oxohydropyridyl)acetylamino]-1,2-oxazaperhydroine-2-carboxamidine trifluoroacetate]
